Our source for the IC50 values is patent US6355633B1, “Aryl sulfonic acids and derivatives as FSH antagonists” (American Home Products Corporation, priority 1999, dated 2002).

The structures appear in SMILES notation.

The IC50 is the midpoint of a concentration-inhibition curve. A lower IC50 goes with greater potency.

The target in this assay is T1, FSH receptor (Homo sapiens, UniProt P23945).
T1 sequence (P23945 18-695): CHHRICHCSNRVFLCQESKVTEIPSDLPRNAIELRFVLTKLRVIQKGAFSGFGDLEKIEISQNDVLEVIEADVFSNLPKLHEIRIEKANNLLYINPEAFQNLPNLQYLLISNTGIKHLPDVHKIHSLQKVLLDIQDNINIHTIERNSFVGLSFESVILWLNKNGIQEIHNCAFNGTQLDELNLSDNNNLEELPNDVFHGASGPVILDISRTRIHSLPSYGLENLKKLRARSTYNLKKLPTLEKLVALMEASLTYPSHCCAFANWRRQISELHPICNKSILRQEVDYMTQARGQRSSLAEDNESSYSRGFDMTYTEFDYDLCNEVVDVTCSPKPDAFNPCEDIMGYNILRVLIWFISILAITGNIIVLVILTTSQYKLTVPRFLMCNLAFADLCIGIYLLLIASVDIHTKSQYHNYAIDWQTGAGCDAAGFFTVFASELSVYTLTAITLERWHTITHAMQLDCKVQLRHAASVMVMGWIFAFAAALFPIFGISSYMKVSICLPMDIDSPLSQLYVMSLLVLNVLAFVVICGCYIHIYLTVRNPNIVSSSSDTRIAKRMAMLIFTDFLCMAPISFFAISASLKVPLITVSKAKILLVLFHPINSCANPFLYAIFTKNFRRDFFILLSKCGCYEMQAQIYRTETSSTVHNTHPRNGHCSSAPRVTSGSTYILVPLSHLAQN
Kind of assay: FSH Receptor Radioligand Membrane Binding Standard Pharmacological Test Procedure. Further details: expressed in transfected cells. To be noted: [125I]FSH binding to membranes of CHO cells stably transfected with the human FSH receptor. Here is the method: FSH Receptor Radioligand Membrane Binding Standard Pharmacological Test Procedure
Membrane Source: Chinese hamster ovarian cells stably transfected with the human FSH receptor were cultured (Ultra CHO medium containing 1% fetal bovine serum and 200 μg/mL G418) in and harvested. Cells were collected by centrifugation and resulting cell pellets were frozen and stored at −70° C.
Membrane Receptor Preparation: Frozen cell pellets were weighed and resuspended in binding buffer to a final concentration of 30 mg wet weight/mL. Cell suspension for each pellet was homogenized using a Tempest homogenizer (setting=1; 5 strokes; VirTis, Gardiner, N.Y.). Cell homogenates were pooled and 35 mL aliquots were transferred to 50-mL polypropylene copolymer centrifuge tubes (Nalgene cat. #3110-0500). Tubes were spun at 12,000 rpm (SS34 rotor) for 12 min at 4° C. Resulting supernatant fractions were discarded and pellets were stored at −70° C. until use. On the day of the procedure, 35 mL binding buffer was added to each tube (35 mL membrane suspension was sufficient for three 96-well plates). The membrane pellet was dispersed by trituration using a pipet. The resulting suspension wass homogenized using a Tempest homogenizer (3 strokes at setting=1).
Receptor Binding Test procedure: Membrane homogenate (100 μl) was added to each well of a 96-well microtiter plate (Falcon # 3077). All reactions were tested in triplicate. Test compound solutions (50 μl) were added to the designated wells. Total bound counts were determined by adding 50 μl binding buffer containing 4% DMSO to the designated wells. […] Plates were pre-incubated for 15 min at room temperature on shaking platform (setting=3). After preincubation [^125I]FSH (50 μl) was added to each well and plates were incubated for 2 h at room temperature on shaking platform (setting=3). The reaction was terminated by transfer of the membrane preparation to glass fiber filters (Blue Mat #11740; 102×256 mm; Skatron Instruments, Sterling, Va.) that had been pretreated with 1% BSA in wash buffer for at least 30 min, but not longer than 1 h using a 96-well microtiter vacuum harvester (Skatron Instruments). The membrane preparation was washed with 5 cycles of ice-cold wash buffer (200 μl/well/cycle) followed by a pulse wash of 3 cycles (100 μl/well/cycle). The total wash volume per well was 1.3 mL. The filters were dried by a 10 sec aspiration. Disks corresponding to each well of the microtiter plate were punched out of the filter mat into 12×75 mm polypropylene tubes. The radioactivity present on each of the disks was measured using a gamma counter.
An FSH dose response curve (0.001, 0.01, 0.1, 1, 10, and 100 nM) was generated for each binding procedure to monitor procedure to procedrue variability.
FSH Receptor Radioligand Membrane Binding Procedure Buffers and Reagents
Binding buffer is prepared in 11 volumes containing Trizma-HCl, MgCl2, CaCl2 and sodium azide, the pH was adjusted to 7.2 with NaOH, and stored at 4° C. until use. BSA was weighed out on the day of the procedure and added to the amount of buffer required for the procedure (usually 150 mL). The protease inhibitors were prepared as 1 mg/mL stocks (aprotinin, leupeptin, and phosphoramidon were prepared in binding buffer without BSA and protease inhibitors; pepstatin and PMSF were prepared in methanol), stored in 1 mL aliquots at −70° C., and added to the binding buffer on the day of the procedure.
Wash buffer was prepared containing Trizma-HCl, MgCl2 and EDTA, the pH was adjusted to 7.2 with NaOH, and stored at 4° C.
Filter Soak Buffer (pH 7.2)
BSA was weighed out on the day of the procedure and added to 300 mL of wash buffer. The filter soak buffer was used for two procedures before being discarded.
A portion of the stock solution was diluted in binding buffer to a concentration of 200 pM.
FSH Solution for Determining Non-specific Binding: Purified human FSH was prepared as a 100 μM solution in binding buffer without protease inhibitors. […]
In turn, `COCCNc1ccc(C(=O)Nc2ccc(/C=C/c3ccc(NC(=O)c4ccc(NCCOC)c(S(=O)(=O)N5CCOCC5)c4)cc3S(=O)(=O)O)c(S(=O)(=O)O)c2)cc1S(=O)(=O)N1CCOCC1` [Example 30l, 2,2′-[(E)-1,2-Ethenediyl]bis[5-[[4-[(2-methoxyethyl)amino]-3-(4-morpholinylsulfonyl)benzoyl]amino]benzenesulfonic Acid]] gave a concentration for half-maximal inhibition (IC50) of 3.9 µM.
As for `O=C(Nc1ccc(/C=C/c2ccc(NC(=O)c3ccc(OCc4ccco4)c(S(=O)(=O)N4CCOCC4)c3)cc2S(=O)(=O)O)c(S(=O)(=O)O)c1)c1ccc(OCc2ccco2)c(S(=O)(=O)N2CCOCC2)c1` [Example 30u, 2,2′-[(E)-1,2-Ethenediyl]bis[5-[[4-(2-furanylmethoxy)-3-(4-morpholinylsulfony)benzoyl]amino]benzenesulfonic Acid]], the figure is 10 µM.
As for `COC(=O)CS(=O)(=O)c1ccc(C(=O)Nc2ccc(C=Cc3ccc(NC(=O)c4ccc(S(=O)(=O)CC(=O)OC)cc4)cc3S(=O)(=O)O)c(S(=O)(=O)O)c2)cc1` [Example 32c, [4-(4-{2-[4-(4-Methoxycarbonylmethanesulfonyl-benzoylamino)-2-sulfo-phenyl]-vinyl}-3-sulfo-phenylcarbomoyl)-benzenesulfonyl]-acetic Acid, Methyl Ester], the figure is 6.9 µM; as for `COC(=O)CS(=O)(=O)c1cccc(C(=O)Nc2ccc(C=Cc3ccc(NC(=O)c4cccc(S(=O)(=O)CC(=O)OC)c4)cc3S(=O)(=O)O)c(S(=O)(=O)O)c2)c1` [Example 32d, [3-(4-{2-[4-(3-Methoxycarbonylmethanesulfonyl-benzoylamino)-2-sulfo-phenyl]-vinyl}-3-sulfo-phenylcarbomoyl)-benzenesulfonyl]-acetic Acid, Methyl Ester], 12.5 µM.
As for `CS(=O)(=O)Cc1ccc(C(=O)Nc2ccc(/C=C/c3ccc(NC(=O)c4ccc(CS(C)(=O)=O)cc4)cc3S(=O)(=O)O)c(S(=O)(=O)O)c2)cc1` [Example 32g, 2,2′-[(E)-1,2-Ethenediyl]bis[5-[[4-[(methylsulfonyl)methyl]benzoyl]amino]benzenesulfonic Acid]], the figure is 5.3 µM; as for `O=C(Nc1ccc(/C=C/c2ccc(NC(=O)c3ccc(N4CCOCC4)c(S(=O)(=O)N4CCOCC4)c3)cc2S(=O)(=O)O)c(S(=O)(=O)O)c1)c1ccc(N2CCOCC2)c(S(=O)(=O)N2CCOCC2)c1` [Example 32k, 2,2′-[(E)-1,2-Ethenediyl]bis[5-[[4-(4-morpholinyl)-3-(4-morholinylsulfonyl)benzoyl]amino]benzenesulfonic Acid]], 7 µM.
Compound `COCCSc1ccc(C(=O)Nc2ccc(/C=C/c3ccc(NC(=O)c4ccc(SCCOC)c(S(=O)(=O)N5CCOCC5)c4)cc3S(=O)(=O)O)c(S(=O)(=O)O)c2)cc1S(=O)(=O)N1CCOCC1` [Example 32l] displayed an IC50 of 4.1 µM.
As for `COCCN(CCOC)c1ccc(C(=O)Nc2ccc(/C=C/c3ccc(NC(=O)c4ccc(N(CCOC)CCOC)c(S(=O)(=O)N5CCOCC5)c4)cc3S(=O)(=O)O)c(S(=O)(=O)O)c2)cc1S(=O)(=O)N1CCOCC1` [Example 32m, 2,2′-[(E)-1,2-Ethenediyl]bis[5-[[4-[bis(2-methoxyethyl)amino]-3-(4-morpholinylsulfonyl)benzoyl]amino]benzenesulfonic Acid]], the figure is 4.9 µM; as for `CN(C)c1ccc(C(=O)Nc2ccc(/C=C/c3ccc(NC(=O)c4ccc(N(C)C)c(S(=O)(=O)N5CCOCC5)c4)cc3S(=O)(=O)O)c(S(=O)(=O)O)c2)cc1S(=O)(=O)N1CCOCC1` [Example 32n, 2,2′-[(E)-1,2-Ethenediyl]bis[5-[[4-(dimethylamino)-3-(4-morpholinylsulfonyl)benzoyl]amino]benzenesulfonic Acid]], 4.8 µM; as for `COC(=O)CSc1ccc(C(=O)Nc2ccc(/C=C/c3ccc(NC(=O)c4ccc(SCC(=O)OC)c(S(=O)(=O)N5CCOCC5)c4)cc3S(=O)(=O)O)c(S(=O)(=O)O)c2)cc1S(=O)(=O)N1CCOCC1` [Example 32p, [4-[4-(2-{4-[4-Methoxycarbonylmethanesulfanyl-3-(morpholine-4-sulfonyl)-benzoylamino]-2-sulfo-phenyl}-(E)-vinyl)-3-sulfo-phenylcarbamoyl]-2-(morpholine-4-sulfonyl)-phenylsulfanyl]-acetic Acid, Methyl Ester], 15 µM.
As for `O=C(Nc1ccc(CCc2ccc(NC(=O)c3ccc(CC4CCCO4)c(S(=O)(=O)N4CCOCC4)c3)cc2S(=O)(=O)O)c(S(=O)(=O)O)c1)c1ccc(CC2CCCO2)c(S(=O)(=O)N2CCOCC2)c1` (stereo not shown) [Example 32q, 2,2′-(1,2-Ethanediyl)bis[5-[[4-(tetrahydro-2-furanmethyl)-3-(4-morpholinylsulfonyl)benzoyl]amino]benzenesulfonic Acid]], the figure is 2.4 µM; as for `O=C(Nc1ccc(/C=C/c2ccc(NC(=O)c3cccc(S(=O)(=O)N4CCOCC4)c3)cc2S(=O)(=O)O)c(S(=O)(=O)O)c1)c1cccc(S(=O)(=O)N2CCOCC2)c1` [Example 33a, 2,2′-[(E)-1,2-Ethenediyl]bis[5-[[3-(4-morpholinylsulfonyl)benzoyl]amino]benzenesulfonic Acid]], 6.9 µM.
In the case of `O=C(Nc1ccc(/C=C/c2ccc(NC(=O)c3cccc(CN4CCOCC4)c3)cc2S(=O)(=O)O)c(S(=O)(=O)O)c1)c1cccc(CN2CCOCC2)c1` [Example 33b, 2,2′-[(E)-1,2-Ethenediyl]bis[5-[[3-(4-morpholinylmethyl)benzoyl]amino]benzenesulfonic Acid]] it was 4.5 µM; in that of `COc1ccc(C(=O)Nc2ccc(-c3ccc(NC(=O)c4ccc(OC)c(S(=O)(=O)N5CCOCC5)c4)cc3S(=O)(=O)O)c(S(=O)(=O)O)c2)cc1S(=O)(=O)N1CCOCC1` [Example 33g, 4,4′-Bis[4-methoxy-3-(morpholine-4-sulfonyl)benzoylamino]biphenyl-2,2′-(bis)sulfonic Acid], 20 µM; in that of `CS(=O)(=O)c1ccc(C(=O)Nc2ccc(/C=C/c3ccc(NC(=O)c4ccc(S(C)(=O)=O)c(N)c4)cc3S(=O)(=O)O)c(S(=O)(=O)O)c2)cc1N` [Example 35, 2,2′-[(E)-1,2-Ethenediyl]bis[5-[[3-amino-4-(methylsulfonyl)benzoyl]amino]benzenesulfonic Acid]], 4.1 µM.
In turn, `O=C(O)CS(=O)(=O)c1ccc(C(=O)Nc2ccc(C=Cc3ccc(NC(=O)c4ccc(S(=O)(=O)CC(=O)O)cc4)cc3S(=O)(=O)O)c(S(=O)(=O)O)c2)cc1` [Example 36a, [4-(4-{2-[4-(4-Carboxymethanesulfonyl-benzoylamino)-2-sulfo-phenyl]-vinyl}-3-sulfo-phenylcarbamoyl)-benzenesulfonyl]-acetic Acid] showed an IC50 of 16 µM.
